Test results taken from ChEMBL document CHEMBL1201862, “PubChem BioAssay data set” (2004).
Calls of active or inactive are those of the source.

Columns and labels:
[1] = target: Mu-type opioid receptor (Homo sapiens, UniProt P35372); test: SAR Analysis of Antagonists of the MOR Receptor using an Image-Based Assay - Set 3. [Related pubchem assays (depositor defined):AID1777, AID1785, AID1786, AID1966, AID2133, AID2136, AID2284, AID2285, AID2420]; format: functional
[2] = target: T1, Kappa-type opioid receptor (Homo sapiens, UniProt P41145); test: SAR analysis of small molecule antagonists of the kappa opioid receptor via a luminescent beta-arrestin assay - Set 6. [Related pubchem assays (depositor defined):AID1777, AID1778, AID1785, AID1786, AID1966, AID2133, AID2136, AID2285]; format: functional
T1 sequence (P41145 whole entry): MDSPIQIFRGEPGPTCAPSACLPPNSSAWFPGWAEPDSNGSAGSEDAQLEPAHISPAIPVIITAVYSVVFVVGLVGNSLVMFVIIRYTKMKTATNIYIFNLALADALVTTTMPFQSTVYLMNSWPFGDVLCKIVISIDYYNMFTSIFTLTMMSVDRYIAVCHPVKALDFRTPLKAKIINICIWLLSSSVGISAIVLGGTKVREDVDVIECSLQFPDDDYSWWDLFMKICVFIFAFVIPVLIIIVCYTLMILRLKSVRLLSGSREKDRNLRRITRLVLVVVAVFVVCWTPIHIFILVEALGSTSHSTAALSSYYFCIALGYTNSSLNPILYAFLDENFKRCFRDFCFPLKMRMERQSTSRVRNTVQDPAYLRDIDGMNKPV

[3] = target: T1, Kappa-type opioid receptor; test: SAR analysis of small molecule antagonists of the kappa opioid receptor via a luminescent beta-arrestin assay - Set 4. [Related pubchem assays (depositor defined):AID1777, AID1778, AID1785, AID1786, AID1966, AID2133, AID2136, AID2285]; format: functional
[4] = target: Delta-type opioid receptor (Homo sapiens, UniProt P41143); test: SAR Analysis of Antagonists of the DOR Receptor using an Image-Based Assay - Set 3. [Related pubchem assays (depositor defined):AID1777, AID1785]; format: functional;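 further: U2OS cells expressing DOR1 and beta-arrestin GFP stimulated with 100 nM SNC80; imaging of GFP-tagged beta-arrestin moving into spots after receptor activation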
Delta-type opioid receptor, sequence (P41143 whole entry): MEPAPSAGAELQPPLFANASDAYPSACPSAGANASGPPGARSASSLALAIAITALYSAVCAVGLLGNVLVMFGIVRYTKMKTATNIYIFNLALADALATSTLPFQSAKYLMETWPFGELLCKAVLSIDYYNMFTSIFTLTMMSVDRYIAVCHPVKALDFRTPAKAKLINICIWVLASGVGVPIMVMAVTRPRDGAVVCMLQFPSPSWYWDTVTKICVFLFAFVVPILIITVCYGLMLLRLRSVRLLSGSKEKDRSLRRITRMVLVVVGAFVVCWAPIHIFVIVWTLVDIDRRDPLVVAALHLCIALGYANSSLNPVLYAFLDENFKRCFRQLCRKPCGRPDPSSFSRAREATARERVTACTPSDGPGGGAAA

[5] = target: T1, Kappa-type opioid receptor; test: SAR analysis of Antagonists of the Kappa Opioid Receptor (KOR) using an Image-Based Assay - Set 4. [Related pubchem assays (depositor defined):AID1777, AID1785]; format: functional
[6] = Luminescence Cell-Based Dose Response HTS to Identify Activators of Luciferase Translation or Activity in H4-C Neuroglioblastoma Cells. [Related pubchem assays: 1829 (Project Summary), 1814 (Primary HTS)]; format: functional
[7] = Luminescence Cell-Based Dose Response to Identify Activators of 5'UTR Stem-Loop Driven Prion Protein mRNA Translation in H4-C Neuroglioblastoma Cells. [Related pubchem assays: 1829 (Project Summary), 1814 (Primary HTS)]; format: functional
[8] = Luminescence Cell-Based Dose Retest to Confirm Activators of 5'UTR Stem-Loop Driven Alpha-Synuclein mRNA Translation in H4 Neuroglioblastoma Cells. [Related pubchem assays (depositor defined):AID1813, AID1829]; format: functional
[9] = Luminescence Cell-Based Dose Response HTS to Identify Activators of 5'UTR Stem-Loop Driven Prion Protein mRNA Translation in H4-C Neuroglioblastoma Cells. [Related pubchem assays: 1829 (Project Summary), 1814 (Primary HTS)]; format: functional
[10] = Luminescence Cell-Based Dose Confirmation HTS to Identify Activators of 5'UTR Stem-Loop Driven Alpha-Synuclein mRNA Translation in H4 Neuroglioblastoma Cells. [Related pubchem assays: 1829 (Project Summary), 1814 (Primary HTS)]; format: functional
[11] = Luminescence Cell-Based Dose Response HTS to Identify Activators of Luciferase Translation or Activity in H4 […] Cells. [Related pubchem assays: 1829 (Project Summary), 1814 (Primary HTS)]; format: functional
[12] = tested on: H4; test: Luminescence Cell-Based Dose Response HTS to Identify Activators of 5'UTR Stem-Loop Driven Prion Protein mRNA Translation in H4 Neuroglioblastoma Cells. [Related pubchem assays: 1829 (Project Summary), 1814 (Primary HTS)]; format: functional; conditions: Homo sapiens
[13] = Luminescence Cell-Based Dose Response to Identify Activators of Luciferase Translation or Activity in H4-C Neuroglioblastoma Cells. [Related pubchem assays: 1829 (Project Summary), 1814 (Primary HTS)]; format: functional
[14] = Luminescence Cell-Based Dose Confirmation to Identify Activators of 5'UTR Stem-Loop Driven Alpha-Synuclein mRNA Translation in H4 Neuroglioblastoma Cells. [Related pubchem assays: 1829 (Project Summary), 1814 (Primary HTS)]; format: functional
[15] = target: T2, Nucleotide-binding oligomerization domain-containing protein 1 (Homo sapiens, UniProt Q9Y239); test: SAR analysis of NF-kappaB dependent luciferase using DAP as an inducer - Set 2. [Related pubchem assays (depositor defined):AID1566, AID1575, AID1578, AID1579, AID1849, AID1852, AID2264]; format: functional
T2 sequence (Q9Y239 whole entry): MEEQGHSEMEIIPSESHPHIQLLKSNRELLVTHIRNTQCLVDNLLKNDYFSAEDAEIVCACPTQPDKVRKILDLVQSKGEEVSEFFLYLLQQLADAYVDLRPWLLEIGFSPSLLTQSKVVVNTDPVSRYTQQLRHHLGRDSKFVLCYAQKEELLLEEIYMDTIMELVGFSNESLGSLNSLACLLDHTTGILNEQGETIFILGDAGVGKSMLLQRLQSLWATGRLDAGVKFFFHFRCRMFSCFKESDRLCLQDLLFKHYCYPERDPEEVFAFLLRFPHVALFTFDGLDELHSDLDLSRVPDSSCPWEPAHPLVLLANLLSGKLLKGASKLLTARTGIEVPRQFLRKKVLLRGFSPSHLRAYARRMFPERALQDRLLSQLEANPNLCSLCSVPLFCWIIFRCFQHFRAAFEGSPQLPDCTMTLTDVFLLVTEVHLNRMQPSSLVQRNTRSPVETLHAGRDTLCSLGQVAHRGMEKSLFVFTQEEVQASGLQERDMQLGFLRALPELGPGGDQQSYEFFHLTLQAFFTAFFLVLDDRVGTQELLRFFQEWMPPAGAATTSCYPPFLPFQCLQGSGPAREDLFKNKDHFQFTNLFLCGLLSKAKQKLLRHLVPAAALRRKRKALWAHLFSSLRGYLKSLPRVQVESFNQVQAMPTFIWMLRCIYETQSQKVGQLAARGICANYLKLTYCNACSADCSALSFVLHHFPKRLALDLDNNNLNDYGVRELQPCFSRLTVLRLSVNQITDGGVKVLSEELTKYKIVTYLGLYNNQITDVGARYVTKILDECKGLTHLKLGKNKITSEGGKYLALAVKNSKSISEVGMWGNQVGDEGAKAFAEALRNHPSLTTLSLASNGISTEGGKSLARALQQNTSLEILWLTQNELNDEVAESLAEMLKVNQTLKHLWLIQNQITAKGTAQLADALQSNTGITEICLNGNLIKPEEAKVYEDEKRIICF

[16] = target: T3, Interleukin-8 (Homo sapiens, UniProt P10145); test: SAR analysis of Tumor necrosis factor alpha (TNF-alpha) induced IL-8 secretion in MCF-7/NOD1 cells - Set 2. [Related pubchem assays (depositor defined):AID1575, AID2250, AID2260]; format: functional, cell-based
T3 sequence (P10145 whole entry): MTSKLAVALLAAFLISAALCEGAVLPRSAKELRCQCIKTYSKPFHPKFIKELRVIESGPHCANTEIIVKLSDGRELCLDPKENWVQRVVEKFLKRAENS

[17] = target: T3, Interleukin-8; test: SAR analysis of GM-Tri-DAP induced IL-8 secretion in MCF-7/NOD1 cells - Set 2. [Related pubchem assays (depositor defined):AID1575, AID1578, AID2333]; format: functional, cell-based
[18] = target: Tumor necrosis factor (Homo sapiens, UniProt P01375); test: TNFa-triggered NF-kB activation inhibitors, SAR follow-up, cell-based, revised (AID 2337); format: functional
Tumor necrosis factor, sequence (P01375 whole entry, the tested form may be a part): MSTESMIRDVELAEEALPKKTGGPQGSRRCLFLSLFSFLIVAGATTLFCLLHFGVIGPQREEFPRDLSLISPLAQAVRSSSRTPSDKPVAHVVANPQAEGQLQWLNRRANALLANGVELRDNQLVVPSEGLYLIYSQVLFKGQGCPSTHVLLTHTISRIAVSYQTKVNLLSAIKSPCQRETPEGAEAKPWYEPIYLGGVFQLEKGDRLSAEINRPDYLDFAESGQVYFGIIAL

[19] = target: T2, Nucleotide-binding oligomerization domain-containing protein 1; test: NOD1 signaling inhibitors, SAR follow-up, revised (AID 2333); format: functional
[20] = target: Nucleotide-binding oligomerization domain-containing protein 2 (Homo sapiens, UniProt Q9HC29); test: PubChem AID 2334; format: functional
Nucleotide-binding oligomerization domain-containing protein 2, sequence (Q9HC29 whole entry, the tested form may be a part): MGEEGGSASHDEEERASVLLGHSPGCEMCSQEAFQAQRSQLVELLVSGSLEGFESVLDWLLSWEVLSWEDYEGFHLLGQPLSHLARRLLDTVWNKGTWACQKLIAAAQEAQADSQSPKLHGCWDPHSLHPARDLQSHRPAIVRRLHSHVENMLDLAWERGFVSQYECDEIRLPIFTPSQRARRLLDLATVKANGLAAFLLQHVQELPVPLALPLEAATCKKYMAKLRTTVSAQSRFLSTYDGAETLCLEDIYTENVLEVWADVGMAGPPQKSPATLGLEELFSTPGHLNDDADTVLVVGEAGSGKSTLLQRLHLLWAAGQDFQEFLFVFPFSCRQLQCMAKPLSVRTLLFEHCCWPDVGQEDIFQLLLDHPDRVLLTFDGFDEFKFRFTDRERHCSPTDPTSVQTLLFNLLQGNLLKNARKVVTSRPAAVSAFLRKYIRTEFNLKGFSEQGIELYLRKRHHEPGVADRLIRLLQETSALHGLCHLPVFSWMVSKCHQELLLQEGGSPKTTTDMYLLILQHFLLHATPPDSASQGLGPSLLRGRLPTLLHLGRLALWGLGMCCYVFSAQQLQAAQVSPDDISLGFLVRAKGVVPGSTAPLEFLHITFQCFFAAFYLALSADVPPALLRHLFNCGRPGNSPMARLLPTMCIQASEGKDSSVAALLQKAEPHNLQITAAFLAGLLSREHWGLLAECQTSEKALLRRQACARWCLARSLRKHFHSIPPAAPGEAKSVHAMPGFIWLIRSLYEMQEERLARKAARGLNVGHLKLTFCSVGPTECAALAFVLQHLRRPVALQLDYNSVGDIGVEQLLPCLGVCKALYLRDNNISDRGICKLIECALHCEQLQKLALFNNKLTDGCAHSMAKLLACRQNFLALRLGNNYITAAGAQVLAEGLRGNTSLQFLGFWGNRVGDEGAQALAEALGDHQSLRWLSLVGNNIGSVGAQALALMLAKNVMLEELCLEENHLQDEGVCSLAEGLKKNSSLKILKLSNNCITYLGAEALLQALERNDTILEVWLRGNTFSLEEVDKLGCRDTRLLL

[21] = tested on: HEK293; test: cells; conditions: Homo sapiens;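 further: cells exposed to compound for 14 hours overnight before viability readout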
[22] = Cytotoxicity screening for potential Inhibitors of Bacterial Capsule Biogenesis. [Related pubchem assays (depositor defined):AID488970]; format: functional

Mu-type opioid receptor, sequence (P35372 whole entry): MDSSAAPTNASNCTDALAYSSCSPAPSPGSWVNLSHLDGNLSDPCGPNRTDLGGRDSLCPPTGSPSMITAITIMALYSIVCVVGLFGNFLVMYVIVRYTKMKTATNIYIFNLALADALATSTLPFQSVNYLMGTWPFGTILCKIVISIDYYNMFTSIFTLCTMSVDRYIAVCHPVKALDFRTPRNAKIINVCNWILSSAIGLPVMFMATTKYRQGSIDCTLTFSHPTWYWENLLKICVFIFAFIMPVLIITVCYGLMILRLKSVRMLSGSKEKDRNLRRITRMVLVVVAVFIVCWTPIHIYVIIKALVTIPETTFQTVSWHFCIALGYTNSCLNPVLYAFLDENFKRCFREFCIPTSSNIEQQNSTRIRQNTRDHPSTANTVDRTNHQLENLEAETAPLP

## CC(C)N(CCNC(=O)c1ccc(CNS(=O)(=O)c2ccc(-c3ccccc3)cc2)cc1)Cc1ccccc1
[1]
  IC50: > 32 µM (inactive)
[2]
  IC50: > 20 µM (inactive)
[3]
  IC50: 1.33 µM (active)
[4]
  IC50: > 32 µM (inactive)
[5]
  IC50: 0.432 µM (active)

## C=CCc1ccc(OCCn2nnc3ccccc32)c(OC)c1
[6]
  EC50: 0.772 µM (active)
[7]
  EC50: 1.49 µM (active)
[8]
  EC50: > 195 µM (inactive)
[9]
  EC50: > 195 µM (not active)
[10]
  EC50: < 0.1 µM (active)
[11]
  EC50: 4.24 µM (active)
[12]
  EC50: 8.33 µM (active)
[13]
  EC50: 3.71 µM (active)
[14]
  EC50: > 12 µM (not active)

## Nc1nc2ccccc2n1CCOc1ccc(Cl)cc1
[15]
  IC50: > 25 µM (inactive)
[16]
  IC50: > 25 µM (inactive)
[17]
  IC50: 8.6 µM (active)
[18]
  IC50: > 20 µM (inactive)
[19]
  IC50: 12.7 µM (active)
[20]
  IC50: > 20 µM (inactive)
[21]
  IC50: > 20 µM (inactive)

## O=C(NCc1cc([N+](=O)[O-])ccc1O)c1cccnc1Sc1ccccc1
[22]
  CC50: > 100 µM (active)
